Results from patent publication US10010541B2, “Modulation of tissue transglutaminase activation in disease” (The Board of Trustees of the Leland Stanford Junior …, priority 2014, dated 2018).
Blank lines part the entries; values can stand above or below the molecule they belong to.

Key:
[1] = biological target: T1, TG2 (Homo sapiens, UniProt P21980); test: glutamate dehydrogenase-coupled deamidation assay, substrate Cbz-Gln-Gly; format: biochemical; conditions: irreversible inhibition model, full progress curves
T1 sequence (P21980 1-687): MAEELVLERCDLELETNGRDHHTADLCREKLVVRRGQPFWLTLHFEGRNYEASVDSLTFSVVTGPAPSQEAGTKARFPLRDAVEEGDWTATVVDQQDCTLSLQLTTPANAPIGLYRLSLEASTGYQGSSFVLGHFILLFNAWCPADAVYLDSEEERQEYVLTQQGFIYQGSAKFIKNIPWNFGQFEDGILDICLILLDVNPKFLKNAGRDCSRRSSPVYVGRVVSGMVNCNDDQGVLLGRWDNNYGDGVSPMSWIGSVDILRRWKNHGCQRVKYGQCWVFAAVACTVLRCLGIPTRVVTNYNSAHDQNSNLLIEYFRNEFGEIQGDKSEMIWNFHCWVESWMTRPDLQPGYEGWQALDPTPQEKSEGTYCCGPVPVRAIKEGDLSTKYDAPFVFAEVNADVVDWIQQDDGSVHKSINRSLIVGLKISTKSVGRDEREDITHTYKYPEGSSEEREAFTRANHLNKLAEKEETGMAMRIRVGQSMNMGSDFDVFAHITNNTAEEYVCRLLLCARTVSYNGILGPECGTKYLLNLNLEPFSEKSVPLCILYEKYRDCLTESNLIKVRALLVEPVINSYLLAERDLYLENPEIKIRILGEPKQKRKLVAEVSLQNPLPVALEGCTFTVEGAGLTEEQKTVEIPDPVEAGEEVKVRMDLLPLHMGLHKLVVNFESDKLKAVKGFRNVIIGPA

[2] = biological target: T2, TG1 (Homo sapiens, UniProt P22735); test: glutamate dehydrogenase-coupled deamidation assay, substrate Cbz-Gln-Ser; format: biochemical; conditions: irreversible inhibition model, full progress curves
T2 sequence (P22735 1-817): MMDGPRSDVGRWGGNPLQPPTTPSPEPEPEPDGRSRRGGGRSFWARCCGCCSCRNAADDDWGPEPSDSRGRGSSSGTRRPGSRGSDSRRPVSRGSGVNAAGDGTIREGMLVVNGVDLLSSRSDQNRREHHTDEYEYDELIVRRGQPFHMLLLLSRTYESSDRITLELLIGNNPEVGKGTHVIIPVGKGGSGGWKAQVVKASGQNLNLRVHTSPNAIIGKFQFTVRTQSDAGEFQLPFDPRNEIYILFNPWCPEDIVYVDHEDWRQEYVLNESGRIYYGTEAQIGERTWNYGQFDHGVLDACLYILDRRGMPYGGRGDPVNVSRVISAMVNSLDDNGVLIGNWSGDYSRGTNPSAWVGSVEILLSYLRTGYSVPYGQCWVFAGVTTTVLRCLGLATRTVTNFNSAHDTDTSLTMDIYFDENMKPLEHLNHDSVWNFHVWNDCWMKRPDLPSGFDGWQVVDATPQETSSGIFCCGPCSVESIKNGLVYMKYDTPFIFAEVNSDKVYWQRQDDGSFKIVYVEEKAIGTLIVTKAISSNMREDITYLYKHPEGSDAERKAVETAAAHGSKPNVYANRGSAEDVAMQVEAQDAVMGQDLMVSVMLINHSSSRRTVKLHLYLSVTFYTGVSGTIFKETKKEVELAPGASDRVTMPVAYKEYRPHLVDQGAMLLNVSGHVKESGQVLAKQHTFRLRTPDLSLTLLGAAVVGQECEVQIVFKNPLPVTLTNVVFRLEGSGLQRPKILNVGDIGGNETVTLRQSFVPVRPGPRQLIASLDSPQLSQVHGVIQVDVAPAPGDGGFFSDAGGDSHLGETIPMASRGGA

SMILES: O=C(N[C@@H]1C[C@@H](C(=O)NC[C@@H]2CC(Br)=NO2)N(C(=O)OCc2cnc3ccccc3c2)C1)c1cccc(O)c1 [Compound 3, (2S,4R)-quinolin-3-ylmethyl 2-((((S)-3-bromo-4,5-dihydroisoxazol-5-yl)methyl)carbamoyl)-4-(3-hydroxybenzamido)pyrrolidine-1-carboxylate]
kinh/Ki TG2 [1]: 603 M⁻¹ s⁻¹
kinh/Ki TG1 [2]: 302 M⁻¹ s⁻¹

SMILES: O=C(NC[C@@H]1CC(Br)=NO1)[C@@H]1C[C@@H](NC(=O)C2(C(=O)O)CCC2)CN1C(=O)OCc1cnc2ccccc2c1 [Compound 7, 1-(((3R,5S)-5-((((S)-3-bromo-4,5-dihydroisoxazol-5-yl)methyl)carbamoyl)-1-((quinolin-3-ylmethoxy)carbonyl)pyrrolidin-3-yl)carbamoyl)cyclobutanecarboxylic acid]
kinh/Ki TG2 [1]: 230 M⁻¹ s⁻¹
kinh/Ki TG1 [2]: 96.7 M⁻¹ s⁻¹

SMILES: O=C(N[C@@H]1C[C@@H](C(=O)NC[C@@H]2CC(Br)=NO2)N(C(=O)OCc2cnc3ccccc3c2)C1)c1cnccn1 [Compound 6, (2S,4R)-quinolin-3-ylmethyl 2-((((S)-3-bromo-4,5-dihydroisoxazol-5-yl)methyl)carbamoyl)-4-(pyrazine-2-carboxamido)pyrrolidine-1-carboxylate]
kinh/Ki TG2 [1]: 262 M⁻¹ s⁻¹
kinh/Ki TG1 [2]: 200 M⁻¹ s⁻¹

SMILES: O=C(N[C@@H]1C[C@@H](C(=O)NC[C@@H]2CC(Br)=NO2)N(C(=O)OCc2cnc3ccccc3c2)C1)c1ccccc1O [Compound 2, (2S,4R)-quinolin-3-ylmethyl 2-((((S)-3-bromo-4,5-dihydroisoxazol-5-yl)methyl)carbamoyl)-4-(2-hydroxybenzamido)pyrrolidine-1-carboxylate]
kinh/Ki TG2 [1]: 618 M⁻¹ s⁻¹
kinh/Ki TG1 [2]: 452 M⁻¹ s⁻¹

SMILES: O=C(NC[C@@H]1CC(Br)=NO1)[C@@H]1C[C@@H](c2ccccc2)CN1C(=O)OCc1cnc2ccccc2c1 [Compound 8, (2S,4S)-quinolin-3-ylmethyl 2-((((S)-3-bromo-4,5-dihydroisoxazol-5-yl)methyl)carbamoyl)-4-phenylpyrrolidine-1-carboxylate]
kinh/Ki TG2 [1]: 810 M⁻¹ s⁻¹
kinh/Ki TG1 [2]: 1100 M⁻¹ s⁻¹

SMILES: O=C(N[C@@H]1C[C@@H](C(=O)NC[C@@H]2CC(Br)=NO2)N(C(=O)OCc2cnc3ccccc3c2)C1)c1ccccc1 [Compound 1, (2S,4R)-quinolin-3-ylmethyl 4-benzamido-2-((((S)-3-bromo-4,5-dihydroisoxazol-5-yl)methyl)carbamoyl)pyrrolidine-1-carboxylate]
kinh/Ki TG2 [1]: 430 M⁻¹ s⁻¹
kinh/Ki TG1 [2]: 410 M⁻¹ s⁻¹

SMILES: O=C(N[C@@H]1C[C@@H](C(=O)NC[C@@H]2CC(Br)=NO2)N(C(=O)OCc2cnc3ccccc3c2)C1)c1ccc(O)cc1 [Compound 4, (2S,4R)-quinolin-3-ylmethyl 2-((((S)-3-bromo-4,5-dihydroisoxazol-5-yl)methyl)carbamoyl)-4-(4-hydroxybenzamido)pyrrolidine-1-carboxylate]
kinh/Ki TG2 [1]: 940 M⁻¹ s⁻¹
kinh/Ki TG1 [2]: 522 M⁻¹ s⁻¹

The next lines start with the values.

kinh/Ki TG2 [1]: 200 M⁻¹ s⁻¹
kinh/Ki TG1 [2]: 257 M⁻¹ s⁻¹
SMILES: O=C(NC[C@@H]1CC(Br)=NO1)[C@@H]1C[C@@H](c2ccc(Cl)cc2)CN1C(=O)OCc1cnc2ccccc2c1 [Compound 14, (2S,4S)-quinolin-3-ylmethyl 2-((((S)-3-bromo-4,5-dihydroisoxazol-5-yl)methyl)carbamoyl)-4-(4-chlorophenyl)pyrrolidine-1-carboxylate]

kinh/Ki TG2 [1]: 307 M⁻¹ s⁻¹
kinh/Ki TG1 [2]: 800 M⁻¹ s⁻¹
SMILES: O=C(NC[C@@H]1CC(Br)=NO1)[C@@H]1C[C@@H](c2c[nH]c3ccc(F)cc23)CN1C(=O)OCc1cnc2ccccc2c1 [Compound 15, (2S,4S)-quinolin-3-ylmethyl 2-((((S)-3-bromo-4,5-dihydroisoxazol-5-yl)methyl)carbamoyl)-4-(5-fluoro-1H-indol-3-yl)pyrrolidine-1-carboxylate]

kinh/Ki TG2 [1]: 563 M⁻¹ s⁻¹
kinh/Ki TG1 [2]: 492 M⁻¹ s⁻¹
SMILES: O=C(NC[C@@H]1CC(Br)=NO1)[C@@H]1C[C@@H](c2ccccc2O)CN1C(=O)OCc1cnc2ccccc2c1 [Compound 10, (2S,4S)-quinolin-3-ylmethyl 2-((((S)-3-bromo-4,5-dihydroisoxazol-5-yl)methyl)carbamoyl)-4-(2-hydroxyphenyl)pyrrolidine-1-carboxylate]

kinh/Ki TG2 [1]: 295 M⁻¹ s⁻¹
kinh/Ki TG1 [2]: 287 M⁻¹ s⁻¹
SMILES: O=C(NC[C@@H]1CC(Br)=NO1)[C@@H]1C[C@H](c2ccccc2)CN1C(=O)OCc1cnc2ccccc2c1 [Compound 9, (2S,4R)-quinolin-3-ylmethyl 2-((((S)-3-bromo-4,5-dihydroisoxazol-5-yl)methyl)carbamoyl)-4-phenylpyrrolidine-1-carboxylate]

kinh/Ki TG2 [1]: 870 M⁻¹ s⁻¹
kinh/Ki TG1 [2]: 645 M⁻¹ s⁻¹
SMILES: O=C(NC[C@@H]1CC(Br)=NO1)[C@@H]1C[C@@H](c2cccc(O)c2)CN1C(=O)OCc1cnc2ccccc2c1 [Compound 11, (2S,4S)-quinolin-3-ylmethyl 2-((((S)-3-bromo-4,5-dihydroisoxazol-5-yl)methyl)carbamoyl)-4-(3-hydroxyphenyl)pyrrolidine-1-carboxylate]

kinh/Ki TG2 [1]: 1520 M⁻¹ s⁻¹
kinh/Ki TG1 [2]: 1510 M⁻¹ s⁻¹
SMILES: O=C(NC[C@@H]1CC(Br)=NO1)[C@@H]1C[C@@H](c2ccc(O)cc2)CN1C(=O)OCc1cnc2ccccc2c1 [Compound 12, (2S,4S)-quinolin-3-ylmethyl 2-((((S)-3-bromo-4,5-dihydroisoxazol-5-yl)methyl)carbamoyl)-4-(4-hydroxyphenyl)pyrrolidine-1-carboxylate]

kinh/Ki TG2 [1]: 422 M⁻¹ s⁻¹
kinh/Ki TG1 [2]: 695 M⁻¹ s⁻¹
SMILES: O=C(NC[C@@H]1CC(Br)=NO1)[C@@H]1C[C@@H](c2cccc(Cl)c2)CN1C(=O)OCc1cnc2ccccc2c1 [Compound 13, (2S,4S)-quinolin-3-ylmethyl 2-((((S)-3-bromo-4,5-dihydroisoxazol-5-yl)methyl)carbamoyl)-4-(3-chlorophenyl)pyrrolidine-1-carboxylate]
